Assay results taken from patent US20190297889A1, “USE OF A DIFLUORO-(2-HYDROXYPROPYL)PYRIDINE COMPOUND AS A FUNGICIDE FOR CONTROL OF PHYTOPATHOGENIC FUNGI OF RICE” (Dow AgroSsciences LLC, priority 2016, published 2019).
Like-named read-outs stand apart in the source and are kept apart here.

Key:
[1] = system: Gaeumannomyces graminis var. graminis; assay: Field assessment of Gaeumannomyces graminis var. graminis (GAEUGR) in rice; format: in vivo
Text: The applications were made as preventative treatments, with no infection at the time of application. The first symptoms of […] were observed after three applications.

Pyricularia oryzae = format: in vivo; settings: 2 sprays, rice field
Rhizoctonia solani = assay: Field assessment of Rhizoctonia solani (RHIZSO, sheath blight) in rice; format: in vivo; settings: 2 sprays
Description: The experimental plots were inoculated with Rhizoctonia solani_2 days after the first application at growth stage BBCH 59 of rice.
Disease infection percentage was calculated as (lesion lengths)/(total sheath lengths)×100% on 6 plants per plot randomly. Sheath blight infection was assessed three times, 7 days after application A (DAAA) plus 7 and 14 DAAB. The disease infection was recorded following EPPO PP1/26 guideline prescriptions.

Cochliobolus miyabeanus = assay: Field assessment of Cochliobolus miyabeanus (COCHMI, brown spot) in rice; settings: for Percent Control (AUDPC), Panicle: panicles; for Percent Control (AUDPC), Plot: whole plot foliage
Description: The applications were made as early curative treatments, with the first application coming at the vegetative stage (50 to 70 DAP; max tillering to booting). The treatments were part of an experimental trial designed as a randomized complete block with four replications and a plot of approximately 5×2 m.
Disease assessments were made every seven days until three weeks after the second application. Disease severity was recorded as a percentage of visual diseased foliage on whole plot and as a percentage of visual infection on the rice panicles. Area under the disease progress curve (AUDPC) was calculated for each plot using the sets of recorded severity data. Relative AUDPC (% control based on AUDPC) was calculated as percent of the nontreated control. Also included in the study is the effect on efficacy of the addition of two adjuvants at varied rates: Agnique BP-420 (50% w/w) at rates from 0.05% to 0.3%; and Agnique BP-420 (50% w/w) plus MSO (methylated seed oil) at rates from 0.25% to 0.75%.

[2] = 100 g ai/ha, Adjuvant A (Agnique BP-420) 0.2% v/v
[3] = 150 g ai/ha, Adjuvant A (Agnique BP-420) 0.3% v/v
[4] = 125 g ai/ha, commercial standard

## N#Cc1ccc(Oc2ccc(C(F)(F)C(O)(Cn3ncnc3S)c3ccc(F)cc3F)nc2)cc1 (stereo not drawn) [Compound I, 4-((6-(2-(2,4-difluorophenyl)-1,1-difluoro-2-hydroxy-3-(5-mercapto-1H-1,2,4-triazol-1-yl)propyl)pyridin-3-yl)oxy)benzonitrile]
[1]; 100 g ai/ha, Adjuvant A (Agnique BP-420) 0.1% v/v
  % Control (AUDPC of visual infection on the plant): B (51-75)
[1]; [2]
  % Control (AUDPC of visual infection on the plant): B (51-75)
[1]; 100 g ai/ha, Adjuvant A (Agnique BP-420) 0.3% v/v
  % Control (AUDPC of visual infection on the plant): B (51-75)
[1]; 100 g ai/ha, Adjuvant B (Agnique BP-420 + MSO) 0.5% v/v
  % Control (AUDPC of visual infection on the plant): B (51-75)
[1]; 100 g ai/ha, Adjuvant B (Agnique BP-420 + MSO) 1.0% v/v
  % Control (AUDPC of visual infection on the plant): B (51-75)
[1]; 100 g ai/ha, Adjuvant B (Agnique BP-420 + MSO) 1.5% v/v
  % Control (AUDPC of visual infection on the plant): B (51-75)
[1]; 100 g ai/ha, adjuvant None
  % Control (AUDPC of visual infection on the plant): C (26-50)
[1]; [3]
  % Control (AUDPC of visual infection on the plant): B (51-75)
[1]; 200 g ai/ha, Adjuvant A (Agnique BP-420) 0.4% v/v
  % Control (AUDPC of visual infection on the plant): A (76-100)
Pyricularia oryzae; 50 g ai/ha
  Disease (% Control) PYRIOR, based on AUDPC: C (26-50)
Pyricularia oryzae; 100 g ai/ha
  Disease (% Control) PYRIOR, based on AUDPC: B (51-75)
Pyricularia oryzae; 150 g ai/ha
  Disease (% Control) PYRIOR, based on AUDPC: A (76-100)
Pyricularia oryzae; 200 g ai/ha
  Disease (% Control) PYRIOR, based on AUDPC: A (76-100)
Rhizoctonia solani; 50 g ai/ha
  Disease (% Control) RHIZSO, based on AUDPC: D (1-25)
Rhizoctonia solani; 100 g ai/ha
  Disease (% Control) RHIZSO, based on AUDPC: C (26-50)
Rhizoctonia solani; 150 g ai/ha
  Disease (% Control) RHIZSO, based on AUDPC: C (26-50)
Rhizoctonia solani; 200 g ai/ha
  Disease (% Control) RHIZSO, based on AUDPC: B (51-75)
Cochliobolus miyabeanus; 50 g ai/ha, Adjuvant A (Agnique BP-420) 0.05% v/v
  % Control (AUDPC of visual infection on the plant): B (51-75)
Cochliobolus miyabeanus; 50 g ai/ha, Adjuvant A (Agnique BP-420) 0.1% v/v
  % Control (AUDPC of visual infection on the plant): B (51-75)
Cochliobolus miyabeanus; 50 g ai/ha, Adjuvant A (Agnique BP-420) 0.15% v/v
  % Control (AUDPC of visual infection on the plant): B (51-75)
Cochliobolus miyabeanus; 50 g ai/ha, Adjuvant B (Agnique BP-420 + MSO) 0.25% v/v
  % Control (AUDPC of visual infection on the plant): B (51-75)
Cochliobolus miyabeanus; 50 g ai/ha, Adjuvant B (Agnique BP-420 + MSO) 0.5% v/v
  % Control (AUDPC of visual infection on the plant): B (51-75)
Cochliobolus miyabeanus; 50 g ai/ha, Adjuvant B (Agnique BP-420 + MSO) 0.75% v/v
  % Control (AUDPC of visual infection on the plant): B (51-75)
Cochliobolus miyabeanus; 50 g ai/ha, […]
  Percent Control (AUDPC), Panicle: C (26-50)
  Percent Control (AUDPC), Plot: C (26-50)
Cochliobolus miyabeanus; 50 g ai/ha, adjuvant None
  % Control (AUDPC of visual infection on the plant): C (26-50)
Cochliobolus miyabeanus; 75 g ai/ha, […]
  Percent Control (AUDPC), Panicle: C (26-50)
  Percent Control (AUDPC), Plot: C (26-50)
Cochliobolus miyabeanus; [2]
  % Control (AUDPC of visual infection on the plant): B (51-75)
Cochliobolus miyabeanus; 100 g ai/ha, […]
  Percent Control (AUDPC), Panicle: C (26-50)
  Percent Control (AUDPC), Plot: C (26-50)
Cochliobolus miyabeanus; 125 g ai/ha, […]
  Percent Control (AUDPC), Panicle: B (51-75)
  Percent Control (AUDPC), Plot: C (26-50)
Cochliobolus miyabeanus; [3]
  % Control (AUDPC of visual infection on the plant): A (76-100)
Cochliobolus miyabeanus; 150 g ai/ha, […]
  Percent Control (AUDPC), Panicle: B (51-75)
  Percent Control (AUDPC), Plot: B (51-75)

## CCCC1COC(Cn2cncn2)(c2ccc(Cl)cc2Cl)O1 (stereo not drawn) [Propiconazole, reference compound]
Cochliobolus miyabeanus; [4]
  Percent Control (AUDPC), Panicle: B (51-75)
  Percent Control (AUDPC), Plot: B (51-75)

## N#CC(CCc1ccc(Cl)cc1)(Cn1cncn1)c1ccccc1 (stereo not drawn) [Fenbuconazole, reference compound]
[1]; 144 g ai/ha, adjuvant Inex-A 0.15% v/v
  % Control (AUDPC of visual infection on the plant): B (51-75)
